Measured values: ChEMBL document CHEMBL1201862, “PubChem BioAssay data set” (2004)
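Method: 48-hour compound exposure of cells in 96-well plates, five concentrations, linear interpolation of endpoints. GI50 marks 50% less growth.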 Calls of active or inactive are those of the source. No stated cut-off is given here; in the data, active = GI50 up to about 1.1 µM and inactive = higher.

How the values were obtained:
Assay in all cases: NCI anticancer screen, dose series, 48 h
786-0 = system: 786-0
A498 = system: A498
A549 = system: A549
ACHN = system: ACHN
BT-549 = system: BT-549
CAKI-1 = system: CAKI-1
CCRF-CEM = system: CCRF-CEM
COLO 205 = system: COLO 205
DU-145 = system: DU-145
EKVX = system: EKVX
HCT-116 = system: HCT-116
HCT-15 = system: HCT-15
HL-60 = system: HL-60
HOP-62 = system: HOP-62
HOP-92 = system: HOP-92
HT-29 = system: HT-29
Hs-578T = system: Hs-578T
IGROV-1 = system: IGROV-1
K562 = system: K562
KM12 = system: KM12
LOX IMVI = system: LOX IMVI
M14 = system: M14
MCF7 = system: MCF7
MDA-MB-231 = system: MDA-MB-231
MDA-MB-435 = system: MDA-MB-435
MDA-N = system: MDA-N
MOLT-4 = system: MOLT-4
Malme-3M = system: Malme-3M
NCI-H226 = system: NCI-H226
NCI-H23 = system: NCI-H23
NCI-H460 = system: NCI-H460
NCI-H522 = system: NCI-H522
NCI/ADR-RES = system: NCI/ADR-RES
OVCAR-3 = system: OVCAR-3
OVCAR-4 = system: OVCAR-4
OVCAR-5 = system: OVCAR-5
OVCAR-8 = system: OVCAR-8
PC-3 = system: PC-3
RPMI-8226 = system: RPMI-8226
RXF 393 = system: RXF 393
SF-268 = system: SF-268
SF-295 = system: SF-295
SF-539 = system: SF-539
SK-MEL-28 = system: SK-MEL-28
SK-MEL-2 = system: SK-MEL-2
SK-MEL-5 = system: SK-MEL-5
SK-OV-3 = system: SK-OV-3
SN12C = system: SN12C
SNB-19 = system: SNB-19
SNB-75 = system: SNB-75
SR = system: SR
SW-620 = system: SW-620
T47D = system: T47D
TK-10 = system: TK-10
U-251 = system: U-251
UACC-257 = system: UACC-257
UACC-62 = system: UACC-62
UO-31 = system: UO-31
HCC 2998 = system: HCC 2998

Compound: CCOC(=O)C1=C(O)C2C3CC4C2C(O)=C(C(=O)OCC)C2C1C3C42 (stereo unspecified)
- GI50 (786-0): > 100 µM (inactive)
- GI50 (A498): > 100 µM (inactive)
- GI50 (A549): > 100 µM (inactive)
- GI50 (ACHN): > 100 µM (inactive)
- GI50 (BT-549): > 100 µM (inactive)
- GI50 (CAKI-1): > 100 µM (inactive)
- GI50 (CCRF-CEM): 42.7 µM (inactive)
- GI50 (COLO 205): > 100 µM (inactive)
- GI50 (DU-145): > 100 µM (inactive)
- GI50 (EKVX): > 100 µM (inactive)
- GI50 (HCT-116): > 100 µM (inactive)
- GI50 (HCT-15): > 100 µM
- GI50 (HL-60): 24.8 µM (inactive)
- GI50 (HOP-62): > 100 µM (inactive)
- GI50 (HOP-92): 95.5 µM (inactive)
- GI50 (HT-29): > 100 µM (inactive)
- GI50 (Hs-578T): > 100 µM (inactive)
- GI50 (IGROV-1): > 100 µM (inactive)
- GI50 (K562): > 100 µM (inactive)
- GI50 (KM12): > 100 µM (inactive)
- GI50 (LOX IMVI): 98.6 µM (inactive)
- GI50 (M14): > 100 µM (inactive)
- GI50 (MCF7): > 100 µM (inactive)
- GI50 (MDA-MB-231): > 100 µM (inactive)
- GI50 (MDA-MB-435): > 100 µM (inactive)
- GI50 (MDA-N): > 100 µM (inactive)
- GI50 (MOLT-4): > 100 µM (inactive)
- GI50 (Malme-3M): > 100 µM (inactive)
- GI50 (NCI-H226): > 100 µM (inactive)
- GI50 (NCI-H23): > 100 µM (inactive)
- GI50 (NCI-H460): > 100 µM (inactive)
- GI50 (NCI-H522): > 100 µM (inactive)
- GI50 (NCI/ADR-RES): 18.7 µM (inactive)
- GI50 (OVCAR-3): > 100 µM (inactive)
- GI50 (OVCAR-4): > 100 µM (inactive)
- GI50 (OVCAR-5): > 100 µM (inactive)
- GI50 (OVCAR-8): > 100 µM (inactive)
- GI50 (PC-3): > 100 µM (inactive)
- GI50 (RPMI-8226): 84.5 µM (inactive)
- GI50 (RXF 393): > 100 µM (inactive)
- GI50 (SF-268): > 100 µM (inactive)
- GI50 (SF-295): > 100 µM (inactive)
- GI50 (SF-539): > 100 µM (inactive)
- GI50 (SK-MEL-28): > 100 µM (inactive)
- GI50 (SK-MEL-2): > 100 µM (inactive)
- GI50 (SK-MEL-5): > 100 µM (inactive)
- GI50 (SK-OV-3): > 100 µM (inactive)
- GI50 (SN12C): > 100 µM (inactive)
- GI50 (SNB-19): > 100 µM (inactive)
- GI50 (SNB-75): > 100 µM (inactive)
- GI50 (SR): 45.3 µM (inactive)
- GI50 (SW-620): > 100 µM (inactive)
- GI50 (T47D): > 100 µM (inactive)
- GI50 (TK-10): > 100 µM (inactive)
- GI50 (U-251): > 100 µM (inactive)
- GI50 (UACC-257): > 100 µM (inactive)
- GI50 (UACC-62): > 100 µM (inactive)
- GI50 (UO-31): > 100 µM (inactive)

Compound: C[N+](C)(N)Cc1csc(-c2ccc(Cl)cc2)n1
- GI50 (786-0): > 100 µM (inactive)
- GI50 (A498): 88.5 µM (inactive)
- GI50 (A549): 71.8 µM (inactive)
- GI50 (ACHN): > 100 µM (inactive)
- GI50 (BT-549): 34 µM (inactive)
- GI50 (CAKI-1): > 100 µM (inactive)
- GI50 (COLO 205): > 100 µM (inactive)
- GI50 (DU-145): > 100 µM (inactive)
- GI50 (EKVX): 64.3 µM (inactive)
- GI50 (HCC 2998): > 100 µM (inactive)
- GI50 (HCT-116): > 100 µM (inactive)
- GI50 (HCT-15): > 100 µM
- GI50 (HOP-62): 75.7 µM (inactive)
- GI50 (HOP-92): > 100 µM (inactive)
- GI50 (HT-29): > 100 µM (inactive)
- GI50 (Hs-578T): 23.9 µM (inactive)
- GI50 (IGROV-1): > 100 µM (inactive)
- GI50 (K562): > 100 µM (inactive)
- GI50 (KM12): > 100 µM (inactive)
- GI50 (LOX IMVI): > 100 µM (inactive)
- GI50 (M14): > 100 µM (inactive)
- GI50 (MCF7): > 100 µM (inactive)
- GI50 (MDA-MB-231): > 100 µM (inactive)
- GI50 (MDA-MB-435): > 100 µM (inactive)
- GI50 (MDA-N): > 100 µM (inactive)
- GI50 (Malme-3M): 39.4 µM (inactive)
- GI50 (NCI-H226): 48.2 µM (inactive)
- GI50 (NCI-H23): > 100 µM (inactive)
- GI50 (NCI-H460): > 100 µM (inactive)
- GI50 (NCI-H522): 62.4 µM (inactive)
- GI50 (NCI/ADR-RES): > 100 µM (inactive)
- GI50 (OVCAR-3): 89.5 µM (inactive)
- GI50 (OVCAR-4): > 100 µM (inactive)
- GI50 (OVCAR-5): > 100 µM (inactive)
- GI50 (OVCAR-8): > 100 µM (inactive)
- GI50 (PC-3): > 100 µM (inactive)
- GI50 (RPMI-8226): > 100 µM (inactive)
- GI50 (RXF 393): > 100 µM (inactive)
- GI50 (SF-268): 46.5 µM (inactive)
- GI50 (SF-295): 67.1 µM (inactive)
- GI50 (SF-539): > 100 µM (inactive)
- GI50 (SK-MEL-28): > 100 µM (inactive)
- GI50 (SK-MEL-2): > 100 µM (inactive)
- GI50 (SK-MEL-5): 61.5 µM (inactive)
- GI50 (SK-OV-3): > 100 µM (inactive)
- GI50 (SN12C): 34.8 µM (inactive)
- GI50 (SNB-19): > 100 µM (inactive)
- GI50 (SNB-75): 42.4 µM (inactive)
- GI50 (SR): > 100 µM (inactive)
- GI50 (SW-620): > 100 µM (inactive)
- GI50 (T47D): 80 µM (inactive)
- GI50 (TK-10): > 100 µM (inactive)
- GI50 (U-251): > 100 µM (inactive)
- GI50 (UACC-257): > 100 µM (inactive)
- GI50 (UACC-62): > 100 µM (inactive)
- GI50 (UO-31): > 100 µM (inactive)

Compound: O=C1CS(=O)(=O)C(c2cccc(Oc3ccccc3)c2)N1c1ccccc1 (stereo unspecified)
- GI50 (786-0): 17.8 µM (inactive)
- GI50 (A498): 17.9 µM (inactive)
- GI50 (A549): 35.1 µM (inactive)
- GI50 (ACHN): 23.7 µM (inactive)
- GI50 (BT-549): 20.1 µM (inactive)
- GI50 (CAKI-1): 20.5 µM (inactive)
- GI50 (CCRF-CEM): 34.8 µM (inactive)
- GI50 (COLO 205): 20 µM (inactive)
- GI50 (DU-145): 48 µM (inactive)
- GI50 (EKVX): 16.4 µM (inactive)
- GI50 (HCC 2998): 16.9 µM (inactive)
- GI50 (HCT-116): 16.3 µM (inactive)
- GI50 (HCT-15): 22 µM
- GI50 (HL-60): 21.1 µM (inactive)
- GI50 (HOP-62): 36.7 µM (inactive)
- GI50 (HOP-92): 14.6 µM (inactive)
- GI50 (HT-29): 26.5 µM (inactive)
- GI50 (Hs-578T): 28.4 µM (inactive)
- GI50 (K562): 14.4 µM (inactive)
- GI50 (KM12): 25.8 µM (inactive)
- GI50 (LOX IMVI): 16.5 µM (inactive)
- GI50 (M14): 18.7 µM (inactive)
- GI50 (MCF7): 14.3 µM (inactive)
- GI50 (MDA-MB-231): 19.9 µM (inactive)
- GI50 (MDA-MB-435): 27.4 µM (inactive)
- GI50 (MDA-N): 17.9 µM (inactive)
- GI50 (MOLT-4): 20.4 µM (inactive)
- GI50 (Malme-3M): 20.5 µM (inactive)
- GI50 (NCI-H226): 21.4 µM (inactive)
- GI50 (NCI-H23): 25.1 µM (inactive)
- GI50 (NCI-H460): 18.7 µM (inactive)
- GI50 (NCI-H522): 18.9 µM (inactive)
- GI50 (NCI/ADR-RES): 22 µM (inactive)
- GI50 (OVCAR-3): 20.7 µM (inactive)
- GI50 (OVCAR-4): 26.1 µM (inactive)
- GI50 (OVCAR-5): 31.6 µM (inactive)
- GI50 (OVCAR-8): 27 µM (inactive)
- GI50 (PC-3): 19.1 µM (inactive)
- GI50 (RXF 393): 19.3 µM (inactive)
- GI50 (SF-268): 23.7 µM (inactive)
- GI50 (SF-295): 30.5 µM (inactive)
- GI50 (SF-539): 21.3 µM (inactive)
- GI50 (SK-MEL-28): 26.2 µM (inactive)
- GI50 (SK-MEL-2): 16.1 µM (inactive)
- GI50 (SK-MEL-5): 14.9 µM (inactive)
- GI50 (SK-OV-3): 35.2 µM (inactive)
- GI50 (SN12C): 19.4 µM (inactive)
- GI50 (SNB-19): 43.3 µM (inactive)
- GI50 (SNB-75): 34.1 µM (inactive)
- GI50 (SR): 19.9 µM (inactive)
- GI50 (SW-620): 31.5 µM (inactive)
- GI50 (T47D): 15.3 µM (inactive)
- GI50 (TK-10): 26.6 µM (inactive)
- GI50 (U-251): 16.6 µM (inactive)
- GI50 (UACC-257): 18.6 µM (inactive)
- GI50 (UACC-62): 12.4 µM (inactive)
- GI50 (UO-31): 29.9 µM (inactive)
